One data set relates to SW1573. The settings on record: Canon et al., Nature 575:217-223 (2019); cited from earlier work.
A further data set relates to NSCLC (KRAS G12C) model. The experiment in a line: NSCLC (KRAS G12C) xenograft model, combinations. It counts as in vivo, mice.
Data set [1] deals with NCI-H358 KRASG12C xenograft. Nature of the data set: In vivo NSCLC K-Ras G12C xenograft model (tumor growth). Also on record: species or system BALB/c nude mice.
For a further data set, the system named is NCI-H358 (K-Ras G12C). Nature of the data set: CellTiter-Glo cell viability assay, NCI-H358. It counts as cell-based, human. The gist of the method:
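Compounds dispensed directly onto plated NCI-H358 cells; plates equilibrated to room temperature on day 5 before luminescence read-out. Signal normalized to mean DMSO control (%) and fitted by four-parameter logistic.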
On the technique in general: Cellular ATP, detected with luciferase, serves as a proxy for viable cell number.

Setting [2] is: single agents: Compound B 50 mg/kg intravenous twice weekly, cobimetinib […] daily oral.
The mark [3] stands for this setting: Homo sapiens, NCI-H358, read-out: H358 Cell Viability assay data (K-Ras G12C, IC50, uM), Table 5.
[4] abbreviates: Homo sapiens, NCI-H358, Table 5, read-out: H358 Cell Viability assay data (K-Ras G12C, IC50).

Structures are written as SMILES. Where two headings read alike, the source gives them in different places.

Where the note is “from CCn1c(-c2cccnc2[C@H](C)OC)c(CC(C)(C)CO)c2cc(-c3cc(C[C@H](NC(=O)OC(C)(C)C)C(=O)N4CCC[C@@H](C(=O)O)N4)cc(O[Si](C(C)C)(C(C)C)C(C)C)c3)ccc21, ester bond, EDCI/HOBt/DIPEA, DCM, 15.3 mM, 25.0 °C, 16.0 h”, `CCn1c(-c2cccnc2[C@H](C)OC)c2c3cc(ccc31)-c1cc(cc(O[Si](C(C)C)(C(C)C)C(C)C)c1)C[C@H](NC(=O)OC(C)(C)C)C(=O)N1CCC[C@H](N1)C(=O)OCC(C)(C)C2` returned a ring closure, yield of all isomers of 42%.
In the case of `CCn1c(-c2cccnc2[C@H](C)OC)c2c3cc(ccc31)-c1nc(co1)C[C@H](NC(=O)OC(C)(C)C)C(=O)N1CCC[C@H](N1)C(=O)OCC(C)(C)C2`, the ring closure, yield of all isomers (from CCn1c(-c2cccnc2[C@H](C)OC)c(CC(C)(C)COC(=O)[C@@H]2CCCN(C(=O)[C@H](Cc3coc(Br)n3)NC(=O)OC(C)(C)C)N2)c2cc(B3OC(C)(C)C(C)(C)O3)ccc21, cc_pd bond, XPhos Pd G3, dioxane, […], 70.0 °C, 4.0 h) is 56%.
For the molecule `CC1(C)COC(=O)[C@@H]2CCCN(N2)C(=O)[C@@H](NC(=O)OC(C)(C)C)Cc2cccc(c2)-c2ccc3[nH]c(I)c(c3c2)C1`, the ring closure, yield of all isomers (from CC(C)(CO)Cc1c(I)[nH]c2ccc(-c3cccc(C[C@H](NC(=O)OC(C)(C)C)C(=O)N4CCC[C@@H](C(=O)O)N4)c3)cc12, ester bond, EDCI/HOBt/DIPEA, DCM, 12.8 mM, 0.0 °C, 16.0 h) is 79.8%.
In turn, `CCn1c(-c2cccnc2[C@H](C)OC)c2c3nc(ccc31)-c1csc(n1)C[C@H](NC(=O)OC(C)(C)C)C(=O)N1CCC[C@H](N1)C(=O)OCC(C)(C)C2` displayed a ring closure, yield of all isomers (from CCn1c(-c2cccnc2[C@H](C)OC)c(CC(C)(C)CO)c2nc(-c3csc(C[C@H](NC(=O)OC(C)(C)C)C(=O)N4CCC[C@@H](C(=O)O)N4)n3)ccc21, ester bond, EDCI HCl/HOBt/DIPEA, DCM, 6.4 mM, 25.0 °C, 16.0 h) of 43%.
Take `C=CC(=O)N1CCN(c2nc(=O)n(-c3c(C)ccnc3C(C)C)c3nc(-c4c(O)cccc4F)c(F)cc23)[C@@H](C)C1` [AMG510]: the “sensitivity of cell line” value in the data set on SW1573 was “insensitive”.
With `CCn1c(-c2cccnc2[C@H](C)OC)c2c3cc(ccc31)-c1cnc(o1)C[C@H](NC(=O)OC(C)(C)C)C(=O)N1CCC[C@H](N1)C(=O)OCC(C)(C)C2`, under “from CCn1c(-c2cccnc2[C@H](C)OC)c(CC(C)(C)CO)c2cc(-c3cnc(C[C@H](NC(=O)OC(C)(C)C)C(=O)N4CCC[C@@H](C(=O)O)N4)o3)ccc21, ester bond, EDCI/HOBt, DIPEA, DCM, 13.7 mM, 0.0 °C, 2.0 h”, the ring closure, yield of all isomers turned out to be 56.4%.
In turn, `CCn1c(-c2cccnc2[C@H](C)OC)c2c3cc(ccc31)N1CCC[C@@H](C[C@H](NC(=O)OCc3ccccc3)C(=O)N3CCC[C@H](N3)C(=O)OCC(C)(C)C2)C1` yielded a ring closure, yield of all isomers (from CCn1c(-c2cccnc2[C@H](C)OC)c(CC(C)(C)CO)c2cc(N3CCC[C@@H](C[C@H](NC(=O)OCc4ccccc4)C(=O)N4CCC[C@@H](C(=O)O)N4)C3)ccc21, ester bond, EDCI/HOBt/DIPEA, DCM, 36.7 mM, 25.0 °C, 6.0 h) of 36%.
For the molecule `O=C(c1ccc(F)c(F)c1Nc1ccc(I)cc1F)N1CC(O)([C@@H]2CCCCN2)C1` [cobimetinib], in the data set on NSCLC (KRAS G12C) model (Compound B 50 mg/kg intermittent intravenous or cobimetinib […] daily oral, alone), the “tumor response, single agent (FIG. 3A)” value is on record as “tumor growth inhibition”. Further, the “tumor regressions at end of study, single agent group (FIG. 3B)” value in the data set on NSCLC (KRAS G12C) model (each single agent) was “no tumor regressions”. In data set [1] (setting [2]), the “effect on tumor growth” value is given as “tumor growth inhibition” and the “mice with tumor regression (greater than 10% reduction of tumor volume at end of study)” value is listed as “no tumor regressions”.
For the setting “from CO[C@@H](C)c1ncc(N2CCN(C(=O)OCc3ccccc3)CC2)cc1-c1c(CC(C)(C)CO)c2cc(-c3cccc(C[C@H](NC(=O)OC(C)(C)C)C(=O)N4CCC[C@@H](C(=O)O)N4)c3)ccc2n1CC(F)(F)F, ester bond, EDCI/HOBt/DIPEA, DCM, 9.87 mM, 25.0 °C, 12.0 h”, `CO[C@@H](C)c1ncc(N2CCN(C(=O)OCc3ccccc3)CC2)cc1-c1c2c3cc(ccc3n1CC(F)(F)F)-c1cccc(c1)C[C@H](NC(=O)OC(C)(C)C)C(=O)N1CCC[C@H](N1)C(=O)OCC(C)(C)C2` returned a ring closure, yield of all isomers of 67.9%.
In the case of `Cc1nc(N2CCC3(CC2)CO[C@@H](C)[C@H]3N)c(CO)nc1-c1cccc(Cl)c1Cl` [RMC-4550], the “mice with tumor regression (greater than 10% reduction of tumor volume at end of study)” value in data set [1] (single agents: Compound C 60 mg/kg intravenous once weekly, SHP2 inhibitor (RMC-4550) 30 mg/kg daily oral) is 5 out of 10.
`CC(C)[Si](Oc1cc2cc(c1)-c1ccc3[nH]c(I)c(c3c1)CC(C)(C)COC(=O)[C@@H]1CCCN(N1)C(=O)[C@@H](NC(=O)OC(C)(C)C)C2)(C(C)C)C(C)C` came in with a ring closure, yield of all isomers (from CC(C)[Si](Oc1cc(C[C@H](NC(=O)OC(C)(C)C)C(=O)N2CCC[C@@H](C(=O)O)N2)cc(-c2ccc3[nH]c(I)c(CC(C)(C)CO)c3c2)c1)(C(C)C)C(C)C, ester bond, EDCI/HOBt/DIPEA, DCM, 22.8 mM, 25.0 °C, 16.0 h) of 50%.
Consider `CCn1c(-c2ccccc2COC)c2c3cc(ccc31)-c1cc(cc([N+](=O)[O-])c1)C[C@H](NC(=O)OC(C)(C)C)C(=O)N1CCC[C@H](N1)C(=O)OCC(C)(C)C2`, for which the ring closure, yield of all isomers (from CCn1c(-c2ccccc2COC)c(CC(C)(C)CO)c2cc(-c3cc(C[C@H](NC(=O)OC(C)(C)C)C(=O)N4CCC[C@@H](C(=O)O)N4)cc([N+](=O)[O-])c3)ccc21, ester bond, EDCI/HOBt/DIPEA, DCM, 6.4 mM, 25.0 °C, 16.0 h) is 73%.
Consider `CCn1c(-c2cccnc2[C@H](C)OC)c2c3cc(ccc31)-c1cc(cc(C(F)F)c1)C[C@H](NC(=O)OC(C)(C)C)C(=O)N1CCC[C@H](N1)C(=O)OCC(C)(C)C2`, for which the ring closure, yield of all isomers (from CCn1c(-c2cccnc2[C@H](C)OC)c(CC(C)(C)CO)c2cc(-c3cc(C[C@H](NC(=O)OC(C)(C)C)C(=O)N4CCC[C@@H](C(=O)O)N4)cc(C(F)F)c3)ccc21, ester bond, EDCI/HOBt/DIPEA, DCM, 16.0 h) was found to be 51%.
Under “from CO[C@@H](C)c1ncccc1-c1c(CC(C)(C)CO)c2cc(N3CCO[C@@H](C[C@H](NC(=O)OCc4ccccc4)C(=O)N4CCC[C@@H](C(=O)O)N4)C3)ccc2n1CC(F)(F)F, ester bond, EDCI/HOBt/DIPEA, DCM, 11.25 mM, 16.0 h”, `CO[C@@H](C)c1ncccc1-c1c2c3cc(ccc3n1CC(F)(F)F)N1CCO[C@@H](C[C@H](NC(=O)OCc3ccccc3)C(=O)N3CCC[C@H](N3)C(=O)OCC(C)(C)C2)C1` gave a ring closure, yield of all isomers of 74%.
In general, IC50 refers to the concentration at which inhibition is half-maximal. Turning to `CCn1c(-c2cccnc2[C@H](C)OC)c2c3cc(ccc31)-c1csc(n1)C[C@H](NC(=O)[C@H](C(C)C)N(C)C(=O)N1CC(N(C)C(=O)C#CC(C)(C)N3CCC3)C1)C(=O)N1CCC[C@H](N1)C(=O)OCC(C)(C)C2` [Compound A379], in the data set on NCI-H358 (K-Ras G12C) (setting [3]), the IC50 is less than 0.01 µM.
For the molecule `C=CC(=O)N1CC[C@H](C(=O)N(C)[C@H](C(=O)N[C@H]2Cc3cc(O)cc(c3)-c3ccc4c(c3)c(c(-c3ccccc3)n4CC)CC(C)(C)COC(=O)[C@@H]3CCCN(N3)C2=O)C(C)C)C1` [Compound A23], in the data set on NCI-H358 (K-Ras G12C) (Table 5, read-out: H358 Cell Viability assay data (K-Ras G12C, IC50)), the IC50 fell in the range of 0.1 to 1 µM.
In the case of `CCn1c(-c2cccnc2[C@H](C)OC)c2c3cc(ccc31)-c1nc(nn1C)C[C@H](NC(=O)OC(C)(C)C)C(=O)N1CCC[C@H](N1)C(=O)OCC(C)(C)C2`, the ring closure, yield of all isomers (from CCn1c(-c2cccnc2[C@H](C)OC)c(CC(C)(C)COC(=O)[C@@H]2CCCN(C(=O)[C@H](Cc3nc(Br)n(C)n3)NC(=O)OC(C)(C)C)N2)c2cc(B3OC(C)(C)C(C)(C)O3)ccc21, cc_pd bond, XPhos Pd G3, dioxane, 71.7 mM, 75.0 °C, 3.0 h) turned out to be 56.8%.
Regarding `CO[C@@H](C)c1ncccc1-c1c2c3cc(ccc3n1CC(F)(F)F)-c1nc(nn1C)C[C@H](NC(=O)[C@H](C(C)C)N(C)C(=O)C1(F)CCN(C(=O)C#CC(C)(C)N(C)C)CC1)C(=O)N1CCC[C@H](N1)C(=O)OCC(C)(C)C2` (atropisomer, axis not shown) [Compound A577], the IC50 with NCI-H358 (K-Ras G12C) (setting [4]) was less than 0.01 µM.
For the molecule `C=CC(=O)Nc1ccc(C(=O)N(C)[C@H](C(=O)N[C@H]2Cc3cc(O)cc(c3)-c3ccc4c(c3)c(c(-c3cccnc3[C@H](C)OC)n4CC)CC(C)(C)COC(=O)[C@@H]3CCCN(N3)C2=O)C(C)C)cn1` [Compound A250], in the data set with NCI-H358 (K-Ras G12C) (setting [3]), the IC50 is less than 0.01 µM.
On the same count and under the same terms, as for `CCn1c(-c2cccnc2[C@H](C)OC)c2c3cc(ccc31)-c1csc(n1)C[C@H](NC(=O)[C@H](C(C)C)N(C)C(=O)N(C)C1CN(C(=O)/C=C/C(C)(C)O)C1)C(=O)N1CCC[C@H](N1)C(=O)OCC(C)(C)C2` [Compound A350], the figure is 0.1 to 1 µM.
Take `CO[C@@H](C)c1ncccc1-c1c2c3cc(ccc3n1CC(F)(F)F)-c1cc(cc(C(F)F)c1)C[C@H](NC(=O)[C@H](C(C)C)N(C)C(=O)[C@H]1CCN(C(=O)C#CC(C)(C)N3CCC3)C1)C(=O)N1CCC[C@H](N1)C(=O)OCC(C)(C)C2` (atropisomer, axis not shown) [Compound A370]: the IC50 in the data set on NCI-H358 (K-Ras G12C) (setting [4]) was less than 0.01 µM.
Regarding `CCn1c(-c2cccnc2[C@H](C)OC)c2c3cc(ccc31)N1CCO[C@@H](C[C@H](NC(=O)OCc3ccccc3)C(=O)N3CCC[C@H](N3)C(=O)OCC(C)(C)C2)C1`, the ring closure, yield of all isomers (from CCn1c(-c2cccnc2[C@H](C)OC)c(CC(C)(C)CO)c2cc(N3CCO[C@@H](C[C@H](NC(=O)OCc4ccccc4)C(=O)N4CCC[C@@H](C(=O)O)N4)C3)ccc21, ester bond, EDCI/HOBt/DIPEA, DCM, 12.75 mM, 25.0 °C, 16.0 h) is 66%.
Take `C=CC(=O)N1CCO[C@H]2CCN(C(=O)N(C)[C@H](C(=O)N[C@H]3Cc4nc(cs4)-c4ccc5c(c4)c(c(-c4cccnc4[C@H](C)OC)n5CC)CC(C)(C)COC(=O)[C@@H]4CCCN(N4)C3=O)C(C)C)C[C@@H]21` (atropisomer, axis not shown) [Compound A609]: in the data set with NCI-H358 (K-Ras G12C) (setting [3]), the IC50 was less than 0.01 µM.

Source of the values: patent EP4806900A2, “RAS INHIBITORS” (Revolution Medicines, Inc., priority 2019, dated 2021).
